This is an account of results in paper PMC4102788, “Linking off-target kinase pharmacology to the differential cellular effects observed among PARP inhibitors” (Oncotarget, 2014).

Usually IC50 stands for the concentration at which inhibition is half-maximal.

Data set [1] has as its system STAT3 phosphorilation. On the set-up: method as in PMID 22678161. To be noted: at 5 µM; cited from earlier work.
Data set [2] has as its target T1, human PIM2 kinase (Homo sapiens, UniProt Q9P1W9).
T1 construct: purchased Cerep (CRO that ran the assay) 2920 (745-P2); host or cells: insect cells
The data set can be described thus: Human Pim2 kinase in vitro inhibition assay (Cerep, LANCE/FRET). It is filed as biochemical. The text has this: (§1) Rucaparib, veliparib and olaparib were purchased from Selleckchem. Kinase in vitro assays were perfomed at Cerep (www.cerep.fr) by measuring the phosphorylation of appropriate peptide substrates by human recombinant enzymes and using FRET as a detection method (a detailed description of each kinase assay is available in online supplementary data).
Human Pim1 and Pim2 kinase in vitro inhibition assays
All details for the Pim1 and Pim2 in vitro assays can be consulted in the Cerep […]
http://www.cerep.fr/cerep/users/pages/catalog/Affiche_CondExp_Test.asp?test=2919, http://www.cerep.fr/cerep/users/pages/catalog/Affiche_CondExp_Test.asp?test=2920.
Evaluation of the effects of compounds on the activity of the human Pim1 and Pim2 kinases were quantified by measuring the phosphorylation of the substrate Ulight- […]
([…]) and ATP (30 µM for Pim1 and 3 µM for Pim2), and the mixture is incubated for 60 min at room temperature. […] After 60 more min, the fluorescence transfer is measured at λex=337 nm, λem=620 nm and λem=665 nm using a microplate reader (Envision, Perkin Elmer).
The enzyme activity is determined by dividing the signal measured at λem=665 nm by that measured at λem=620 nm (ratio). The results are expressed as a percent inhibition of the control enzyme activity. […]
On the technique in general: Time-resolved FRET reads energy transfer from a long-lived donor to a nearby acceptor.

For data set [3] the following is noted: 40 mg single daily dose; cited from earlier work.
Data set [4] concerns the target T2, human CDK9 kinase (Homo sapiens, UniProt P50750).
T2 construct: purchased Cerep (CRO that ran the assay) 2912 (781-cdk9); host or cells: Sf9 cells
As to the kind of experiment: Human CDK9 kinase in vitro inhibition assay (Cerep, LANCE). It is filed as biochemical. Particulars: human recombinant enzyme, 10 µM ATP.
Description: as §1
Human CDK9 kinase in vitro inhibition assay
All details for the CDK9 in vitro assay can be consulted in the Cerep Catalogue available online under references 2912 (781-cdk9): http://www.cerep.fr/cerep/users/pages/catalog/Affiche_CondExp_Test.asp?test=2912 Evaluation of the effects of compounds on the activity of the human CDK9 quantified by measuring the phosphorylation of the substrate Ulight- […]
mixture is incubated for 90 min at room temperature. […] After 60 more min, the fluorescence transfer is measured at λex=337 nm, λem=620 nm and λem=665 nm using a microplate reader (Envision, Perkin Elmer). The enzyme activity is determined by dividing the signal measured at λem=665 nm by that measured at λem=620 nm (ratio). The results are expressed as a percent inhibition of the control enzyme activity. The standard inhibitory reference compound is staurosporine, which is tested in each experiment at several concentrations to obtain an inhibition curve from which its IC50 value is calculated. […]

T2 sequence (P50750 whole entry): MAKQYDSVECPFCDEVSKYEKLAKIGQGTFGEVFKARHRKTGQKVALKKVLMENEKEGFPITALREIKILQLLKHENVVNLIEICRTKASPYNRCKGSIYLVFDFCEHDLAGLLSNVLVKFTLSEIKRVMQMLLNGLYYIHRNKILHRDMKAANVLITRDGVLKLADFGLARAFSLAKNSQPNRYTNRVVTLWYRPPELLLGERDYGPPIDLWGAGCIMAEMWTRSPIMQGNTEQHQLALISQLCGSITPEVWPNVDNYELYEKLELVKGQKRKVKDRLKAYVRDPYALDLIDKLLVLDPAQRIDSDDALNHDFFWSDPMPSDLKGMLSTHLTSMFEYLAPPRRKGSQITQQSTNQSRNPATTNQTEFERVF
T2 sequence (O60563 whole entry partner): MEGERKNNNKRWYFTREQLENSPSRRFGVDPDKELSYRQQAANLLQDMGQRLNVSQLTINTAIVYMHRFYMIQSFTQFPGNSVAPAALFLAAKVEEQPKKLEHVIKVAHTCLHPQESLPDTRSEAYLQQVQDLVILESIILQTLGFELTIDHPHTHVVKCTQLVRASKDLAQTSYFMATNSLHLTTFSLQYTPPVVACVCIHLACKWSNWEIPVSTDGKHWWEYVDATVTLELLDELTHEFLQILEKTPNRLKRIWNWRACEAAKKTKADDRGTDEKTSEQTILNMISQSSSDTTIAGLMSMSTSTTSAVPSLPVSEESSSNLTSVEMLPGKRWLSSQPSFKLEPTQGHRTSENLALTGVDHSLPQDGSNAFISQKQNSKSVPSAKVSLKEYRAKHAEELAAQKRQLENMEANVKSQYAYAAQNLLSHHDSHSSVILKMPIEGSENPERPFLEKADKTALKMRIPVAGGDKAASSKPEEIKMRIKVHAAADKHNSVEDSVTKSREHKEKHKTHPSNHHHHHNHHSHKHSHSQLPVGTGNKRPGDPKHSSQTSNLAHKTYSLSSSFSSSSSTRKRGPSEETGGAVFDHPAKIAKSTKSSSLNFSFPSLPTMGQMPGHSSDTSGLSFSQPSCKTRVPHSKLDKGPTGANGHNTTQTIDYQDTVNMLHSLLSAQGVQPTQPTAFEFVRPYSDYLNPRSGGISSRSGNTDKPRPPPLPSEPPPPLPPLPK
T1 sequence (Q9P1W9 whole entry): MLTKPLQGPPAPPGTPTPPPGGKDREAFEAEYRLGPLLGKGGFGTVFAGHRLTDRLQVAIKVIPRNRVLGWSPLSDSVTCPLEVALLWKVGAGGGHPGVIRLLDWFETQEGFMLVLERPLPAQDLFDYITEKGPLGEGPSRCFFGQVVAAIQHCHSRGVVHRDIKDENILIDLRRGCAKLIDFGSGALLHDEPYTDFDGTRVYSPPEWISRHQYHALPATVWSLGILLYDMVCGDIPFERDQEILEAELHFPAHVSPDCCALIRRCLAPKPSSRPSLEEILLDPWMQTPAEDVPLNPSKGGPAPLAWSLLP

In the case of `CNCc1ccc(-c2[nH]c3cc(F)cc4c3c2CCNC4=O)cc1` [rucaparib], the “effect on STAT3 phosphorilation” value in data set [1] is given as “inhibit STAT3 phosphorilation”. Moreover, the 50% inhibitory concentration (IC50) in data set [2] was 7.7 µM; in data set [4], 2.7 µM. Besides, in data set [3], the “highest peak plasma concentration” value is given as “around 2 µM”.
